The term DC50 denotes the midpoint of the concentration-degradation curve.

DC50 data for 30 molecules are collected here from patent publication US20260306640A1, “TECHNOLOGIES TARGETING CELL STATES” (Auron Therapeutics, Inc., priority 2023, published 2026).

Structures are written as SMILES.

What all share (format): cell-based
Assay [1] deals with T1, KAT2A (Homo sapiens, UniProt Q92830). The experiment in a line: KAT2A degradation, Western Blot (Jess), NCI-H1048 cells. Further details: degrader, Western blot (Jess). The settings on record: NCI-H1048 cells, KAT2A, 24 h, Western Blot, vs DMSO; read-out: KAT2A NCI-H1048 DC50. The procedure, abridged:
(§1)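 NCI-H1048 cells grown in HITES medium with 5% FBS were treated with compounds for 24 h at 37° C. Lysates were run by capillary Western (Jess) with KAT2A or KAT2B antibodies and chemiluminescent detection. DC50 derived from percent protein reduction versus DMSO control.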
In general terms: In western blotting, separated proteins are transferred to a membrane and probed.

The target of assay [2] is T1, KAT2A. The experiment in a line: KAT2A degradation, Western Blot (Jess), MOLM-13 cells. Further details: degrader, Western blot. The settings on record: MOLM-13 cells, KAT2A, 24 h, Western Blot, vs DMSO; read-out: KAT2A MOLM-13 DC50. In short, it runs like this:
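MOLM-13 cells in RPMI 1640/20% FBS were treated with compound for 24 h at 37 °C. RIPA lysates (4 μg) were run on a capillary Western (Jess) with anti-KAT2A antibody and chemiluminescent detection. DC50 comes from percent protein reduction versus DMSO control.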

In the next assay the target is KAT2B (Homo sapiens, UniProt Q92831). Description: KAT2B degradation, Western Blot (Jess), NCI-H1048 cells. Also noted: degrader, Western blot (Jess). The settings on record: NCI-H1048 cells, KAT2B, 24 h, Western Blot, vs DMSO; read-out: KAT2B NCI-H1048 DC50. The procedure, abridged: as §1
KAT2B, sequence (Q92831 whole entry): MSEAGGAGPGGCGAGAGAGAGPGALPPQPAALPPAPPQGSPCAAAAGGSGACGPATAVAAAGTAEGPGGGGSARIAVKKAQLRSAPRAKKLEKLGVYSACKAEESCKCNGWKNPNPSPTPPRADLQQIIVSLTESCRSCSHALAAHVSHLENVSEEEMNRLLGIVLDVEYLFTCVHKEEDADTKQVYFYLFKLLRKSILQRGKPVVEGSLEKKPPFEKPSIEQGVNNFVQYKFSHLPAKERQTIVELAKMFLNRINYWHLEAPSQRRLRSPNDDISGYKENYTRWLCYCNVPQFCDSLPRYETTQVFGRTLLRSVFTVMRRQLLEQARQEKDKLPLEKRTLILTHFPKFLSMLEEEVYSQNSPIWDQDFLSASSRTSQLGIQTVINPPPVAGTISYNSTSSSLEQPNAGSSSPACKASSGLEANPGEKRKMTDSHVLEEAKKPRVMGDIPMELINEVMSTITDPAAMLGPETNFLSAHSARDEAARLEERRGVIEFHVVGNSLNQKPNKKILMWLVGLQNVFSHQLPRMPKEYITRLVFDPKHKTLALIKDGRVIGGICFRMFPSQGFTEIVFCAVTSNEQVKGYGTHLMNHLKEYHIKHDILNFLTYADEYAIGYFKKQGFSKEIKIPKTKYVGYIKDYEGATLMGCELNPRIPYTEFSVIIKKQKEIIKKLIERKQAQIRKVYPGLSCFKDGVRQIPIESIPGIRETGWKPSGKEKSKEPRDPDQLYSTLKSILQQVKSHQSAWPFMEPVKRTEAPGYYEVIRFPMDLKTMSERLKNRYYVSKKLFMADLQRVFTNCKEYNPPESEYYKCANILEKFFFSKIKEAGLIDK

T1 sequence (Q92830 whole entry): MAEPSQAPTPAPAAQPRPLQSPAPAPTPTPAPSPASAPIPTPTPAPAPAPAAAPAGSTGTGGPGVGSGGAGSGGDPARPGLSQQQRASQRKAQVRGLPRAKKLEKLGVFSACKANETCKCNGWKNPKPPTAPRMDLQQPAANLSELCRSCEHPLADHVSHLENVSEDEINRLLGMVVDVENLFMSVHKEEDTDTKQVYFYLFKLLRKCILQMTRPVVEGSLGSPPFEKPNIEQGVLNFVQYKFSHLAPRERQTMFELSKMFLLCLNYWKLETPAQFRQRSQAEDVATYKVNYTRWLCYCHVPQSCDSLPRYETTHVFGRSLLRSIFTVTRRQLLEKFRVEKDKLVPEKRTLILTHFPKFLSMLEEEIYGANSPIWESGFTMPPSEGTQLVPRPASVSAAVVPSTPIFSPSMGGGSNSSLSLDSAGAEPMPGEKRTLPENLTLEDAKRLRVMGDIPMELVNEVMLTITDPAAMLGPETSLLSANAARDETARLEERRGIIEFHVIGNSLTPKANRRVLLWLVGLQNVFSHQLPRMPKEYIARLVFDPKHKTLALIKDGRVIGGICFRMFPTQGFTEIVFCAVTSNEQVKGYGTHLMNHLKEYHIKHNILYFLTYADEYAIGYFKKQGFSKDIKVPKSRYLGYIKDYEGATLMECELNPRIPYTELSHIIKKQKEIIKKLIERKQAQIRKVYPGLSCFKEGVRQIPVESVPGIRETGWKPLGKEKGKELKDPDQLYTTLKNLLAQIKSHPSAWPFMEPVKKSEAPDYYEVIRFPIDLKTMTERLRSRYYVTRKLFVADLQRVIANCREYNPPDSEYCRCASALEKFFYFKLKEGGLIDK

As for `CN1C[C@H](Nc2cnn(C)c(=O)c2Cl)C[C@H](c2ccc(C(=O)N3CC4(CC(Oc5ccc(C6CCC(=O)NC6=O)c(F)c5)C4)C3)cc2)C1` (some centres unmarked) [Compound 2-44], the DC50 at KAT2A [1] is less than 1 nM; on KAT2A [2] it was 1 to 30 nM; on KAT2B it was less than 1 nM.

`CN1C[C@H](Nc2cnn(C)c(=O)c2Br)C[C@H](c2ccc(CN3CCN(c4ccc5c(c4)C(=O)N(C4CCC(=O)NC4=O)C5=O)CC3)cc2)C1` (some centres unmarked) [Compound 28]: the DC50 on KAT2A [1], on KAT2A [2] and at KAT2B was less than 1 nM each time.

Take `CN1C[C@H](Nc2cnn(C)c(=O)c2Br)C[C@H](c2ccc(CN3CCN(c4ccc5c(c4)CN(C4CCC(=O)NC4=O)C5=O)CC3)cc2)C1` (some centres unmarked) [Compound 67]: the DC50 at KAT2A [1], on KAT2A [2] and at KAT2B was less than 1 nM each time.

For the molecule `CN1C[C@H](Nc2cnn(C)c(=O)c2Cl)C[C@H](c2ccc(CN3CCN(c4ccc5c(c4)CN(C4CCC(=O)NC4=O)C5=O)CC3)cc2)C1` (some centres unmarked) [Compound 72], the DC50 at KAT2A [1], on KAT2A [2] and at KAT2B was less than 1 nM in each case.

For `CN1C[C@H](Nc2cnn(C)c(=O)c2Cl)C[C@H](c2ccc(COc3ccc4c(c3)C(=O)N(C3CCC(=O)NC3=O)C4=O)cc2)C1` (some centres unmarked) [Compound 110], the DC50 on KAT2A [1], on KAT2A [2] and at KAT2B was 1 to 30 nM in each case.

For the molecule `Cc1cc(OC2CCN(C(=O)c3ccc([C@H]4C[C@@H](Nc5cnn(C)c(=O)c5Br)CN(C)C4)cc3)CC2)ccc1C1CCC(=O)NC1=O` (some centres unmarked) [Compound 114], the 50% degradation concentration (DC50) is less than 1 nM on KAT2A [1], less than 1 nM on KAT2A [2] and more than 30 nM at KAT2B.

On to `CN1C[C@H](Nc2cnn(C)c(=O)c2Br)C[C@H](c2ccc(C(=O)N3CCC(Oc4cccc(C5CCC(=O)NC5=O)c4)CC3)cc2)C1` (some centres unmarked) [Compound 120], for which the DC50 is less than 1 nM at KAT2A [1], 1 to 30 nM at KAT2A [2] and more than 30 nM on KAT2B.

With `Cc1cc(OC2CCN(Cc3ccc([C@H]4C[C@@H](Nc5cnn(C)c(=O)c5Br)CN(C)C4)cc3)CC2)ccc1C1CCC(=O)NC1=O` (some centres unmarked) [Compound 123], the DC50 on KAT2A [1] was less than 1 nM; at KAT2A [2], less than 1 nM; at KAT2B, more than 30 nM.

In the case of `CN1C[C@H](Nc2cnn(C)c(=O)c2Br)C[C@H](c2ccc(C(=O)N3CCC(Oc4ccc(C5CCC(=O)NC5=O)cc4F)CC3)cc2)C1` (some centres unmarked) [Compound 124], the DC50 was less than 1 nM on KAT2A [1], less than 1 nM on KAT2A [2] and 1 to 30 nM on KAT2B.

For the molecule `CN1C[C@H](Nc2cnn(C)c(=O)c2Br)C[C@H](c2ccc(CN3CCC(Oc4ccc(C5CCC(=O)NC5=O)cc4F)CC3)cc2)C1` (some centres unmarked) [Compound 125], the DC50 was less than 1 nM at KAT2A [1], less than 1 nM at KAT2A [2] and more than 30 nM at KAT2B.

For `CN1C[C@H](Nc2cnn(C)c(=O)c2Br)C[C@H](c2ccc(C(=O)N3CCC4(CC3)CN(c3ccc(C5CCC(=O)NC5=O)cc3)C4)cc2)C1` (some centres unmarked) [Compound 126], the values for the DC50 on KAT2A [1], on KAT2A [2] and at KAT2B were less than 1 nM, less than 1 nM and 1 to 30 nM, respectively.

Regarding `CN1C[C@H](Nc2cnn(C)c(=O)c2Br)C[C@H](c2ccc(CN3CCN(c4ccc(F)c(C5CCC(=O)NC5=O)c4)CC3)cc2)C1` (some centres unmarked) [Compound 152], the half-maximal degradation concentration (DC50) at KAT2A [1] is less than 1 nM; at KAT2A [2] it was 1 to 30 nM; at KAT2B it was 1 to 30 nM.

With `CN1C[C@H](Nc2cnn(C)c(=O)c2Cl)C[C@H](c2ccc(CN3CCC4(CC3)CCN(c3ccc(C5CCC(=O)NC5=O)cc3)CC4)cc2)C1` (some centres unmarked) [Compound 155], the DC50 on KAT2A [1], at KAT2A [2] and at KAT2B was less than 1 nM each time.

On to `CN1C[C@H](Nc2cnn(C)c(=O)c2Cl)C[C@H](c2ccc(CN3CCN(c4cccc(C5CCC(=O)NC5=O)c4)CC3)cc2)C1` (some centres unmarked) [Compound 162], for which the DC50 at KAT2A [1] is less than 1 nM; on KAT2A [2], less than 1 nM; at KAT2B, 1 to 30 nM.

`CN1C[C@H](Nc2cnn(C)c(=O)c2Cl)C[C@H](c2ccc(CN3CCC(Oc4ccc(C5CCC(=O)NC5=O)cc4)CC3)cc2)C1` (some centres unmarked) [Compound 168]: the DC50 at KAT2A [1] was less than 1 nM; at KAT2A [2], less than 1 nM; on KAT2B it was 1 to 30 nM.

In the case of `CN1C[C@H](Nc2cnn(C)c(=O)c2Br)C[C@H](c2ccc(CN3CCC(c4ccc(OC5CCC(=O)NC5=O)cc4)CC3)cc2)C1` (some centres unmarked) [Compound 173], the DC50 at KAT2A [2] lay within 1 to 30 nM.

On to `CN1C[C@H](Nc2cnn(C)c(=O)c2Br)C[C@H](c2ccc(CN3CCC4(CC3)CCN(c3ccc(F)c(C5CCC(=O)NC5=O)c3)CC4)cc2)C1` (some centres unmarked) [Compound 174], for which, at KAT2A [2], the DC50 was less than 1 nM.

In the case of `CN1C[C@H](Nc2cnn(C)c(=O)c2Cl)C[C@H](c2ccc(CN3CCN(c4ccc5c(c4)C(=O)N(C4CCC(=O)NC4=O)C5=O)CC3)cc2)C1` (some centres unmarked) [Compound 175], the values for the DC50 at KAT2A [1], on KAT2A [2] and on KAT2B were less than 1 nM, less than 1 nM and 1 to 30 nM, respectively.

For the molecule `CN1C[C@H](Nc2cnn(C)c(=O)c2Cl)C[C@H](c2ccc(C(=O)N3CCN(c4ccc5c(c4)C(=O)N(C4CCC(=O)NC4=O)C5=O)CC3)cc2)C1` (some centres unmarked) [Compound 176], the DC50 on KAT2A [2] was less than 1 nM.

Regarding `CN1C[C@H](Nc2cnn(C)c(=O)c2Br)C[C@H](c2ccc(C(=O)N3CCN(CC4CCN(C5CCC(=O)NC5=O)CC4)CC3)cc2)C1` (some centres unmarked) [Compound 177], the DC50 on KAT2A [2] was more than 30 nM.

Turning to `Cc1ccc(N2CCC3(CCN(Cc4ccc([C@H]5C[C@@H](Nc6cnn(C)c(=O)c6Br)CN(C)C5)cc4)CC3)CC2)cc1C1CCC(=O)NC1=O` (some centres unmarked) [Compound 178], the DC50 at KAT2A [2] fell in the range of 1 to 30 nM.

On to `Cc1ccc(N2CCC3(CCN(C(=O)c4ccc([C@H]5C[C@@H](Nc6cnn(C)c(=O)c6Br)CN(C)C5)cc4)CC3)CC2)cc1C1CCC(=O)NC1=O` (some centres unmarked) [Compound 179], for which the DC50 on KAT2A [2] was less than 1 nM.

In the case of `CN1C[C@H](Nc2cnn(C)c(=O)c2Br)C[C@H](c2ccc(CN3CCN(c4ccc5c(c4)oc(=O)n5C4CCC(=O)NC4=O)CC3)cc2)C1` (some centres unmarked) [Compound 180], the DC50 at KAT2A [2] is less than 1 nM.

Take `CN1C[C@H](Nc2cnn(C)c(=O)c2Br)C[C@H](c2ccc(C(=O)N3CCN(c4ccc5c(c4)oc(=O)n5C4CCC(=O)NC4=O)CC3)cc2)C1` (some centres unmarked) [Compound 181]: on KAT2A [2], the DC50 was in the range of 1 to 30 nM.

As to `CN1C[C@H](Nc2cnn(C)c(=O)c2Br)C[C@H](c2ccc(CN3CC(Oc4ccc(C5CCC(=O)NC5=O)cc4)C3)cc2)C1` (some centres unmarked) [Compound 182], the DC50 at KAT2A [2] was less than 1 nM.

In the case of `CN1C[C@H](Nc2cnn(C)c(=O)c2Br)C[C@H](c2ccc(C(=O)N3CC(Oc4ccc(C5CCC(=O)NC5=O)cc4)C3)cc2)C1` (some centres unmarked) [Compound 183], the DC50 on KAT2A [2] is 1 to 30 nM.

In the case of `CN1C[C@H](Nc2cnn(C)c(=O)c2Br)C[C@H](c2ccc(CN3CC(Oc4cccc(C5CCC(=O)NC5=O)c4)C3)cc2)C1` (some centres unmarked) [Compound 184], the figures for the DC50 on KAT2A [1], at KAT2A [2] and on KAT2B were less than 1 nM, 1 to 30 nM and more than 30 nM, respectively.

Turning to `CN1C[C@H](Nc2cnn(C)c(=O)c2Br)C[C@H](c2ccc(C(=O)N3CC(Oc4cccc(C5CCC(=O)NC5=O)c4)C3)cc2)C1` (some centres unmarked) [Compound 185], at KAT2A [2], the DC50 was less than 1 nM.

As for `Cc1c(N[C@@H]2C[C@H](c3ccc(C(=O)N4CCC5(CC4)CCN(c4ccc(C6CCC(=O)NC6=O)cc4)CC5)cc3)CN(C)C2)cnn(C)c1=O` (some centres unmarked) [Compound 186], the 50% degradation concentration (DC50) on KAT2A [1], at KAT2A [2] and at KAT2B was less than 1 nM each time.

As to `Cc1c(N[C@@H]2C[C@H](c3ccc(CN4CCN(c5cccc(C6CCC(=O)NC6=O)c5)CC4)cc3)CN(C)C2)cnn(C)c1=O` (some centres unmarked) [Compound 187], the DC50 at KAT2A [1] is less than 1 nM; at KAT2A [2] it was less than 1 nM; on KAT2B it was 1 to 30 nM.
